Results published in ChEMBL document CHEMBL5500371, “Arginine and tryptophan-rich dendritic antimicrobial peptides that disrupt membranes for bacterial infection in vivo” (Eur J Med Chem, 2024).
The source made the active and inactive calls. The rule behind the calls is not given here. Where a SMILES comes first, the peptide text is derived from it. Side-chain parts run from the residue outwards.

Experiments:
[1] = Acute toxicity in male BALB/c mouse assessed as loss of appetite at 80 to 130 mg/kg, ip administered as single dose and measured after 3 days; format: organism-based; conditions: in vivo, 72 h, dose 80-130 mg/kg, time 3 day
[2] = test system: Escherichia coli; test: Synergistic antibacterial activity against Escherichia coli ATCC 25922 assessed as fractional inhibitory concentration index at 0.25 to 4 times MIC incubated for 20 hrs in presence of polymyxin B by checkerboard assay; format: functional
[3] = test system: Staphylococcus aureus; test: Antibacterial activity against Staphylococcus aureus ATCC 25923 assessed as inhibition of bacterial growth incubated for 20 hrs in presence of MgCl2 by broth microdilution method (reference value: 16 microM); format: functional
[4] = Therapeutic index, ratio of MHC10 for hemolytic activity in mouse erythrocytes preincubated with 10% mouse serum for 6 hrs to MIC for Escherichia coli ATCC 25922 preincubated with 10% mouse serum for 6 hrs; format: toxicity, cell-based; conditions: mouse erythrocytes, read-out: TI
[5] = test system: Cell membrane; test: Induction of inner membrane permeabilization in Escherichia coli ML-35 ATCC 43837 at 0.5 to 4 times MIC measured every 5 mins over 135 mins by ONPG reagent based microplate reader analysis
[6] = Stability in mouse serum assessed as half life at 10 mM measured upto 24 hrs by RP-HPLC analysis; format: ADME, cell-free
[7] = Acute toxicity in male BALB/c mouse assessed as animal death at 80 mg/kg, ip administered as single dose and measured after 3 days; format: organism-based; conditions: in vivo, 72 h, time 3 day
[8] = Therapeutic index, ratio of MHC10 for hemolytic activity in mouse erythrocytes preincubated with 10% mouse serum for 1 hr to MIC for Staphylococcus aureus ATCC 25923 preincubated with 10% mouse serum for 1 hr; format: toxicity, cell-based; conditions: mouse erythrocytes, read-out: TI
[9] = test system: Cell membrane; test: Disruption of cell membrane morphology in Escherichia coli assessed as breakage of cell membrane at 2 times MIC measured after 0.5 to 2 hrs by SEM analysis; format: cell membranes; conditions: time 0.5-2 hrs
[10] = Acute toxicity in male BALB/c mouse assessed as lusterless fur at 80 to 130 mg/kg, ip administered as single dose and measured after 3 days; format: organism-based; conditions: in vivo, 72 h, dose 80-130 mg/kg, time 3 day
[11] = Cytotoxicity against HEK293T cells assessed as cell death measured after 1 hr by resazurin dye based analysis; format: toxicity, HEK-293T; conditions: human, HEK293T cells
[12] = test system: Lipopolysaccharide (LPS); test: Binding affinity to LPS (unknown origin) assessed as reduction in bacterial mortality at 2 times MIC preincubated with LPS for 1 hr followed by bacteria addition and measured after 18 hrs by microplate reader analysis; format: subcellular; conditions: time 19.0 hrs
[13] = test system: Cell membrane; test: Induction of inner membrane permeabilization in Escherichia coli ML-35 ATCC 43837 at 0.5 to 4 times MIC by ONPG reagent based microplate reader analysis; conditions: time 0-135 min, TDE = time-dependent effect
[14] = test system: Staphylococcus aureus; test: Resistant development in Staphylococcus aureus assessed as increase in MIC at sub-MIC in presence of gentamicin measured after 20 passages; format: functional, organism-based
[15] = Therapeutic index, ratio of MHC10 for hemolytic activity in mouse erythrocytes preincubated with 10% mouse serum for 1 hr to MIC for Escherichia coli ATCC 25922 preincubated with 10% mouse serum for 1 hr; format: toxicity, cell-based; conditions: mouse erythrocytes, read-out: TI
[16] = test system: Cell membrane; test: Induction of cell membrane damage in Staphylococcus aureus assessed as PI uptake at 2 times MIC measured after 0.5 hrs by PI dye based flow cytometry analysis (reference value: 24.2%); format: cell membranes
[17] = test system: Escherichia coli; test: […] activity against Escherichia coli ATCC 25922 infected in male BALB/c pulmonary infection model assessed as reduction in liver hemorrhage at 5 to 10 mg/kg, ip administered at 3 and 12 hrs post infection and measured 24 hrs post infection by H and E staining based analysis; format: functional, organism-based; conditions: dose 5-10 mg/kg, time 12-21 hrs
[18] = test system: Staphylococcus aureus; test: Antibacterial activity against Staphylococcus aureus ATCC 25923 assessed as inhibition of bacterial growth incubated for 20 hrs in presence of FeCl3 by broth microdilution method (reference value: 16 microM); format: functional
[19] = test system: Cell membrane; test: Disruption of cell membrane morphology in Escherichia coli assessed as release of cellular contents at 2 times MIC measured after 0.5 to 2 hrs by SEM analysis; format: cell membranes; conditions: time 0.5-2 hrs
[20] = test system: Cell membrane; test: Induction of outer membrane permeabilization in Escherichia coli assessed as increase in fluorescence intensity at 0.5 to 4 times MIC measured for 12 mins by NPN dye based assay
[21] = test system: Staphylococcus aureus; test: Antibacterial activity against Staphylococcus aureus ATCC 25923 assessed as inhibition of bacterial growth incubated for 20 hrs in presence of NaCl by broth microdilution method (reference value: 16 microM); format: functional
[22] = test system: Cell membrane; test: Disruption of cell membrane morphology in Staphylococcus aureus assessed as loss of intact cell morphology at 2 times MIC measured after 0.5 to 2 hrs by SEM analysis; format: cell membranes; conditions: time 0.5-2 hrs
[23] = test system: Staphylococcus aureus; test: Bactericidal activity against Staphylococcus aureus ATCC 25923 assessed as elimination of bacteria at 2 times MIC measured after 1.5 hrs by time kill assay; format: functional
[24] = test system: Cell membrane; test: Disruption of cell membrane morphology in Staphylococcus aureus assessed as breakage of cell membrane at 2 times MIC measured after 0.5 to 2 hrs by SEM analysis; format: cell membranes; conditions: time 0.5-2 hrs
[25] = test system: Erythrocyte; test: Hemolytic activity in mouse erythrocytes assessed as 10% hemolysis incubated for 1 hr by absorbance based analysis; format: toxicity, cell-based
[26] = Therapeutic index, ratio of MHC10 for hemolytic activity in mouse erythrocytes preincubated with 10% mouse serum for 6 hrs to MIC for Staphylococcus aureus ATCC 25923 preincubated with 10% mouse serum for 6 hrs; format: toxicity, cell-based; conditions: mouse erythrocytes, read-out: TI
[27] = test system: Cell membrane; test: Induction of cell membrane damage in Escherichia coli assessed as increase in PI uptake at 2 times MIC measured after 2 hrs by PI dye based flow cytometry analysis; format: cell membranes
[28] = test system: Escherichia coli; test: […] activity against Escherichia coli ATCC 25922 infected in ip dosed male BALB/c pulmonary infection model assessed as reduction in bacterial colonies administered at 3 and 12 hrs post infection and measured 24 hrs post infection; format: functional, organism-based; conditions: dose 5-10 mg/kg, time 12-21 hrs
[29] = test system: Escherichia coli; test: Synergistic antibacterial activity against gentamicin resistant Escherichia coli ATCC 25922 assessed as fractional inhibitory concentration index at 0.25 to 4 times MIC incubated for 20 hrs in presence of gentamicin by checkerboard assay; format: functional
[30] = test system: Cell membrane; test: Disruption of cell membrane morphology in Staphylococcus aureus assessed as release of cellular contents at 2 times MIC measured after 0.5 to 2 hrs by SEM analysis; format: cell membranes; conditions: time 0.5-2 hrs
[31] = test system: Cell membrane; test: Disruption of cell membrane morphology in Staphylococcus aureus assessed as partial creasing in bacterial membrane at 2 times MIC measured after 0.5 to 2 hrs by SEM analysis; format: cell membranes; conditions: time 0.5-2 hrs
[32] = test system: Escherichia coli; test: Resistant development in Escherichia coli assessed as increase in MIC at sub-MIC in presence of rifampicin measured after 20 passages; format: functional, organism-based
[33] = test system: Staphylococcus aureus; test: Synergistic antibacterial activity against Staphylococcus aureus ATCC 25923 assessed as fractional inhibitory concentration index at 0.25 to 4 times MIC incubated for 20 hrs in presence of polymyxin B by checkerboard assay; format: functional
[34] = test system: Cell membrane; test: Disruption of cell membrane morphology in Escherichia coli assessed as partial creasing in bacterial membrane at 2 times MIC measured after 0.5 to 2 hrs by SEM analysis; format: cell membranes; conditions: time 0.5-2 hrs
[35] = test system: Staphylococcus aureus; test: Synergistic antibacterial activity against rifampicin resistant Staphylococcus aureus ATCC 25923 assessed as fractional inhibitory concentration index at 0.25 to 4 times MIC incubated for 20 hrs in presence of rifampicin by checkerboard assay; format: functional

| Molecule | Activity [1] | fractional inhibitory concentration index (FICI) [2] | MIC [3] [µM] | selectivity ratio [4] | Activity [5] | half-life at 10000 µM [6] [h] | Activity [7] | selectivity ratio [8] | Activity [9] | Activity [10] | CC50 at 1 h [11] [µM] | Activity [12] | Activity [13] | Activity [14] | selectivity ratio [15] | Activity [16] [%] | Activity [17] | MIC [18] [µM] | Activity [19] | Activity [20] | further results |
| --- | --- | --- | --- | --- | --- | --- | --- | --- | --- | --- | --- | --- | --- | --- | --- | --- | --- | --- | --- | --- | --- |
| N=C(N)NCCC[C@H](NC(=O)[C@@H](N)CCCNC(=N)N)C(=O)NCCCC[C@H](NC(=O)[C@H](CCCNC(=N)N)NC(=O)[C@@H](N)CCCNC(=N)N)C(=O)N[C@@H](Cc1c[nH]c2ccccc12)C(=O)N[C@@H](Cc1c[nH]c2ccccc12)C(=O)N[C@@H](Cc1c[nH]c2ccccc12)C(=O)N[C@@H](Cc1c[nH]c2ccccc12)C(N)=O (H-RRK([Arg-Arg])WWWW-NH2) | Toxic | 0.5 | 8 | 0.5 | Dose-Dependent Effect | 7.38 | Non-Toxic | 1 | Active | Toxic | > 128 | Active | Tde | inactive | 1 | > 90 | Active | 8 | Active | Dose-Dependent Effect | MIC [21]: 16 µM; Activity [22]: Active; Activity [23]: 100%; Activity [24]: Active; MHC10 [25]: > 256 µM; selectivity ratio [26]: 1; Activity [27]: inactive; Activity [28]: Dose-Dependent Effect; fractional inhibitory concentration index (FICI) [29]: 5; Activity [30]: Active; Activity [31]: Active; Activity [32]: inactive; fractional inhibitory concentration index (FICI) [33]: 0.313; Activity [34]: Active |
| N=C(N)NCCC[C@H](NC(=O)[C@H](CCCNC(=N)N)NC(=O)[C@H](CCCNC(=N)N)NC(=O)[C@@H](N)CCCNC(=N)N)C(=O)N[C@@H](CCCCN)C(=O)N[C@@H](Cc1c[nH]c2ccccc12)C(=O)N[C@@H](Cc1c[nH]c2ccccc12)C(=O)N[C@@H](Cc1c[nH]c2ccccc12)C(=O)N[C@@H](Cc1c[nH]c2ccccc12)C(N)=O | Toxic | 0.5 |  | 0.25 | Dose-Dependent Effect | 4.31 | Non-Toxic | 0.5 | Active | Toxic | > 128 | Active | Tde | inactive | 0.5 | > 90 | Active |  | Active | Dose-Dependent Effect | Activity [22]: Active; Activity [23]: 100%; Activity [24]: Active; MHC10 [25]: > 256 µM; selectivity ratio [26]: 0.5; Activity [27]: inactive; fractional inhibitory concentration index (FICI) [35]: 0.5; Activity [30]: Active; Activity [31]: Active; Activity [32]: inactive; fractional inhibitory concentration index (FICI) [33]: 0.375; Activity [34]: Active |
| POLYMYXIN B |  |  | 16 |  |  |  |  |  |  |  |  |  |  |  |  |  |  | 16 |  |  | MIC [21]: 64 µM; fractional inhibitory concentration index (FICI) [35]: 0.5; Activity [28]: Dose-Dependent Effect; fractional inhibitory concentration index (FICI) [29]: 0.312 |
